Assay results published in article PMC12731232, “Microbial Biotransformation of the Sesquiterpene Carotol: Generation of Hydroxylated Metabolites with Potential Cytotoxic and Target-Specific Binding Activities” (Biomolecules, 2025).
Converted amounts (≈) assume the structure as drawn.

Key:
MCF-7 (breast carcinoma) = assay: MTT cell viability assay, MCF-7; conditions: for IC50: Homo sapiens, MCF7, 24 h, read-out: Cytotoxic activity IC50 ± SD; for Selectivity index (SI): SI = CC50(MRC-5)/IC50(MCF-7)
Experimental: (§1) The assay was conducted at the Regional Center for Mycology and Biotechnology, Al-Azhar University, Cairo, Egypt.
(§2) Cancer and normal cells were seeded into 96-well plates at a density of 5 × 10^4 cells per well and incubated for 24 h prior to treatment. Test compounds, dissolved in 0.5% DMSO, were added in triplicate at twelve different concentrations. Vehicle controls (media only or media containing 0.5% DMSO) were included. After a 24 h incubation period, cell viability was assessed via the MTT assay.
(§3) Briefly, the media were replaced with 100 µL of fresh RPMI-1640 medium, followed by the addition of 10 µL of a 12 mM MTT stock solution (5 mg/mL in PBS) to each well, including untreated controls. Plates were incubated at 37 °C in a 5% CO2 atmosphere for 4 h. Subsequently, 85 µL of medium was removed from each well, and 50 µL of DMSO was added to dissolve the resulting formazan crystals. The plates were thoroughly mixed and incubated for an additional 10 min at 37 °C. Absorbance was measured at 590 nm using a microplate reader (SunRise, TECAN Inc., Morrisville, NC, USA). Cell viability percentages were calculated, and IC50 values (µM) were determined from dose–response curves using GraphPad Prism 10 software (San Diego, CA, USA) [38].

A-549 (lung carcinoma) = assay: MTT cell viability assay, A-549; conditions: for IC50: Homo sapiens, A549, 24 h, read-out: Cytotoxic activity IC50 ± SD; for Selectivity index (SI): SI = CC50(MRC-5)/IC50(A-549)
Experimental: as §1, §2, §3

[1] = MTT cell viability assay, MRC-5; conditions: human, MRC-5 normal lung fibroblasts
Experimental: as §1, §2, §3

[2] = system: HepG-2 (hepatocellular carcinoma); assay: MTT cell viability assay, HepG-2; conditions: for IC50: Homo sapiens, HepG2, 24 h, read-out: Cytotoxic activity IC50 ± SD; for Selectivity index (SI): SI = CC50(MRC-5)/IC50(HepG-2)
Experimental: as §1, §2, §3

[3] = system: HCT-116 (colon carcinoma); assay: MTT cell viability assay, HCT-116; conditions: for IC50: Homo sapiens, HCT-116, 24 h, read-out: Cytotoxic activity IC50 ± SD; for Selectivity index (SI): SI = CC50(MRC-5)/IC50(HCT-116)
Experimental: as §1, §2, §3

in vitro = conditions: human
Experimental: as §1, §2, §3

[4] = Substrate control stability in sterile fermentation medium; assay type: physicochemical; conditions: without microorganisms
Experimental: Control groups included a substrate control, in which sterile medium containing carotol (5 mg/100 µL DMF) was incubated without microorganisms. […] Culture controls consisted of microorganisms grown under identical conditions to the screening cultures but without carotol. After two weeks of incubation, all cultures were harvested and analyzed by thin-layer chromatography.

[5] = system: green monkey kidney epithelial cells (VERO); design: method as in doi:10.1016/j.indcrop.2016.08.001; conditions: cited from earlier work
[6] = system: human hypopharyngeal squamous cell carcinoma cells (FaDu); design: method as in doi:10.1016/j.indcrop.2016.08.001; conditions: cited from earlier work

Row | IC50 at 24 h (in vitro) | Stability of substrate control ([4]; 5 °C, two weeks) | Stability of substrate control ([4]; room temperature (25–30 °C)) | SMILES | IC50 (MCF-7 (breast carcinoma)) | Selectivity index (SI) (MCF-7 (breast carcinoma)) | IC50 (A-549 (lung carcinoma)) | IC50 at 24 h [1] | IC50 [2] | Selectivity index (SI) [2] | IC50 [3] | Selectivity index (SI) [3] | Selectivity index (SI) (A-549 (lung carcinoma)) | IC50 [5] | IC50 [6]
1 |  |  |  | COc1cccc2c1C(=O)c1c(O)c3c(c(O)c1C2=O)C[C@@](O)(C(=O)CO)C[C@@H]3O[C@H]1C[C@H](N)[C@H](O)[C@H](C)O1 [Doxorubicin, doxorubicin, reference compound] | 3.07 ± 0.18 µM | 14.31 | 3.31 ± 0.26 µM | 44 ± 3.24 µM | 1.27 ± 0.2 µM | 34.62 | 2.99 ± 0.22 µM | 14.66 |  |  | 
2 | 466 ± 20.3 µM |  |  | CC(C)C1C(O)CC2(C)CC(O)C3(C)CCC12O3 (stereo not drawn) [CM1, 9α-hydroxydaucol] | 401 ± 20.3 µM | 1.16 | 225 ± 13.4 µM |  | 221 ± 12.3 µM | 2.11 | 339 ± 15.6 µM | 1.37 | 2.07 |  | 
3 | 316 ± 15.2 µM |  |  | CC(C)[C@H]1CC[C@]2(C)C[C@H](O)[C@@](C)(O)CC[C@]12O [CM3] | 242 ± 15.7 µM | 1.31 | 205 ± 10.6 µM |  | 196 ± 10.6 µM | 1.62 | 226 ± 11 µM | 1.40 | 1.54 |  | 
4 | 248 ± 11.2 µM |  |  | CC(C)(O)[C@H]1[C@@H](O)C[C@]2(C)C[C@H](O)[C@]3(C)CC[C@]12O3 [CM2, 9α,13-dihydroxydaucol] | 213 ± 13.7 µM | 1.16 | 138 ± 9.2 µM |  | 154 ± 9.39 µM | 1.60 | 181 ± 9.95 µM | 1.37 | 1.79 |  | 
5 | 176 ± 10.9 µM | remained fully stable | slight decomposition | CC1=CC[C@@]2(C)CC[C@H](C(C)C)[C@@]2(O)CC1 [Carotol] | 68.4 ± 6.04 µM | 2.57 | 28.7 ± 2.75 µM |  | 52.3 ± 4.23 µM | 3.36 | 25.7 ± 0.53 µM | 6.85 | 6.14 | 39.7 µg/mL (≈ 179 µM) | 38.3 µg/mL (≈ 172 µM)
